Results taken from PubChem BioAssay (NCI).
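Results reflect a 48-hour exposure of cells in 96-well plates to compound at five concentrations. TGI: total growth inhibition.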

Experiments:
Test in all cases: NCI tumour cell line growth inhibition, 48 h
[1] = system: 786-0 renal
[2] = system: A498 renal
[3] = system: A549 NSCLC
[4] = system: ACHN renal
[5] = system: BT-549 breast
[6] = system: CAKI-1 renal
[7] = system: CCRF-CEM leukemia
[8] = system: COLO 205 colon
[9] = system: DU-145 prostate
[10] = system: EKVX NSCLC
[11] = system: HCC-2998 colon
[12] = system: HCT-116 colon
[13] = system: HCT-15 colon
[14] = system: HL-60(TB) leukemia
[15] = system: HOP-62 NSCLC
[16] = system: HOP-92 NSCLC
[17] = system: HS 578T breast
[18] = system: HT29 colon
[19] = system: IGROV1 ovarian
[20] = system: K-562 leukemia
[21] = system: KM12 colon
[22] = system: LOX IMVI melanoma
[23] = system: MALME-3M melanoma
[24] = system: MCF7 breast
[25] = system: MDA-MB-231 breast
[26] = system: MDA-MB-435
[27] = system: MDA-N
[28] = system: MOLT-4 leukemia
[29] = system: NCI-H226 lung
[30] = system: NCI-H23 lung
[31] = system: NCI-H460 lung
[32] = system: NCI-H522 lung
[33] = system: NCI/ADR-RES ovarian
[34] = system: OVCAR-3 ovarian
[35] = system: OVCAR-4 ovarian
[36] = system: OVCAR-5 ovarian
[37] = system: OVCAR-8 ovarian
[38] = system: PC-3 prostate
[39] = system: RPMI-8226 leukemia
[40] = system: RXF 393 renal
[41] = system: SF-268 CNS
[42] = system: SF-295 CNS
[43] = system: SF-539 CNS
[44] = system: SK-MEL-2 melanoma
[45] = system: SK-MEL-28 melanoma
[46] = system: SK-MEL-5 melanoma
[47] = system: SK-OV-3 ovarian
[48] = system: SN12C renal
[49] = system: SNB-75 CNS
[50] = system: SR leukemia
[51] = system: SW-620 colon
[52] = system: T-47D breast
[53] = system: TK-10 renal
[54] = system: U251 CNS
[55] = system: UACC-257 melanoma
[56] = system: UACC-62 melanoma
[57] = system: UO-31 renal
[58] = system: M14 melanoma
[59] = system: SNB-19 CNS

Measured: TGI

CN(/N=C(\C(=O)O)c1ccccc1)C1=NCCCCN1
> 100 µM: [1] | [2] | [3] | [4] | [5] | [6] | [7] | [8] | [9] | [10] | [11] | [12] | [13] | [14] | [15] | [16] | [17] | [18] | [19] | [20] | [21] | [22] | [23] | [24] | [25] | [26] | [27] | [28] | [29] | [30] | [31] | [32] | [33] | [34] | [35] | [36] | [37] | [38] | [39] | [40] | [41] | [42] | [43] | [44] | [45] | [46] | [47] | [48] | [49] | [50] | [51] | [52] | [53] | [54] | [55] | [56] | [57]

COc1ccc2c(c1)C(N)=C(c1ccccc1OC)C2=O
> 100 µM: [1] | [2] | [4] | [5] | [6] | [7] | [8] | [9] | [10] | [11] | [12] | [13] | [14] | [15] | [16] | [17] | [18] | [19] | [20] | [21] | [22] | [58] | [23] | [24] | [25] | [26] | [27] | [28] | [29] | [30] | [31] | [33] | [34] | [35] | [36] | [37] | [38] | [39] | [40] | [41] | [42] | [43] | [44] | [45] | [47] | [48] | [59] | [49] | [50] | [51] | [52] | [53] | [54] | [55] | [56] | [57]
